Values joined by “and” are separate entries in the source; they are usually repeats but may differ in a detail not shown here. Equal entries are not always repeated. Where two headings read alike, the source gives them in different places.
Legend:
[1] = test system: HEK293 cells; test: HEK293 Alamar Blue viability estimation assay; type: cell-based, human; settings: for IC50: Homo sapiens, HEK293
Experimental: T.b. brucei lister 427 cells were maintained in log phase growth in 25 cm^2 tissue culture flasks (Corning, NY, USA) by sub-culturing at either 24 or 48 hour intervals. Cells were grown in HMI-9 medium, supplemented with 10% fetal calf serum (FCS) and 100 IU/ml penicillin/streptomycin (Invitrogen, Carlsbad, California, USA) with incubation at 5% CO2 at 37°C in humidified conditions. HEK293 cells were maintained in high glucose DMEM with L-glutamine, supplemented with 1× non-essential amino acids (NEAA; Invitrogen, USA) and 1 mM sodium pyruvate. Growth conditions were in 5% CO2 at 37°C, under humidified conditions.
Cells at 80% confluence were harvested and diluted in growth medium (high glucose DMEM supplemented with 10% FCS) to 7.27×10^4 cells/ml. Under sterile conditions, 55 µl of diluted cells per well were added to a black, clear bottomed 384-well lidded plate (BD Biosciences, Bedford, MA, USA) with a Multidrop liquid handler (Thermo Scientific, Barrington, IL, USA). Incubation times, compound additions and plate read were as per the trypanosome viability assay, with the exception that Alamar Blue was diluted in HEK293 growth media before addition, and incubation of Alamar Blue at 37°C, in 5% CO2, was for 4 hours, followed by incubation at room temperature for 20 hours. The activity of compounds against HEK293 cells was used to calculate the SI of mammalian to T.b. brucei cells. The control compound for HEK293 cells was puromycin (Calbiochem, USA).
Compounds identified from primary screening were retested against both T.b. brucei and HEK293 cells in duplicate and at varying concentrations to obtain a dose-response curve. Thus, a 5 µl sample of fresh compound stock solution (5 mM in DMSO) was cherry picked into 384-well plates and diluted 1∶10 in dilution medium (high glucose DMEM without FCS). Serial dilutions of these samples were then prepared in the same media by a Minitrak robotic liquid handler (Perkin Elmer, USA). […] A screening dose of 10.4 µM was included in the dilution series to enable reconfirmation of primary screening T.b. brucei activity.
The DMSO working concentration in the serial dilutions was maintained at 5%, giving a final assay concentration of 0.42% DMSO, except for the 41.7 µM test compound solution, where as previously stated the corresponding DMSO concentration was 0.83% v/v. […] Therefore the 41.7 µM test compound sample with 0.83% v/v DMSO was not used in the T.b. brucei assay and thus the top test compound concentration in this assay was 20.8 µM.
Compound activity in the retest campaign was calculated as percentage inhibition in relation to positive and negative controls, in the same manner as the primary screening campaign. The positive controls, pentamidine (2 µM final concentration) for T.b. brucei and puromycin (8 µM final concentration) for HEK293, were both screened in whole 384-well control plates. Whole 384-well plate controls were included after every batch of 20 compound plates, and were comprised of half a plate of negative control and half a plate of positive control. The negative control was the vehicle, […]. The negative control was also included in column 24 of each compound assay plate to determine signal variation from plate to plate and to calculate compound activity. The exception was the 41.7 µM compound dose used in the HEK293 assay. In these plates column 24 contained 0.83% DMSO as a negative control. A separate 384-well plate containing a 13 point dose-response of the reference compounds puromycin, pentamidine and diminazene, in triplicate, was also included per 20 compound test plate batch to estimate assay sensitivity.
These compounds were retested as in dose for N of three replicates, as described above for both T.b. brucei and HEK293.

[2] = test system: T.b. rhodesiense STIB900; test: T. b. rhodesiense STIB900 assay (resazurin); SI versus L6 cells; type: cell-based, Trypanosoma brucei rhodesiense; settings: for IC50: T.b. rhodesiense STIB900, 70 h, read-out: Compound activity T.R (IC50); for Selectivity Index T.R: relative to L6 cells
Experimental: L6 rat skeletal myoblasts, [29] were purchased from the American Type Culture Collection (ATCC, Rockville, MD, USA; ATCC number CRL 1458). This cell line was used for cytotoxicity testing to calculate an SI against T.b. rhodesiense and screened alongside the T.b. rhodesiense, P. falciparum, T. cruzi and L. donovani assays. L6 were also the host cells for the T. cruzi assay. Assays were performed in 96-well microtiter plates, each well containing 100 µl of RPMI 1640 medium supplemented with 1% L-glutamine (200 mM), 10% FCS, and 4000 L6 cells. Serial drug dilutions of eleven 3-fold dilution steps covering a range from 100 to 0.002 µg/ml were prepared. After 70 hours of incubation the plates were inspected under an inverted microscope to assure growth of the controls and sterile conditions. Ten µl of resazurin solution (resazurin, 12.5 mg in 100 ml double-distilled water) was then added to each well and the plates incubated for another 2 hours. Then the plates were read with a Spectramax Gemini XS microplate fluorometer (Molecular Devices Cooperation, Sunnyvale, CA, USA) using an excitation wavelength of 536 nm and an emission wavelength of 588 nm. Data was analysed using the microplate reader software Softmax Pro (Molecular Devices, USA). Podophyllotoxin was used as a positive control in the assay.
T.b. rhodesiense STIB900 stock was isolated in 1982 from a human patient in Tanzania and after several mouse passages cloned and adapted to axenic culture conditions. Fifty microliters of Minimum Essential Medium (MEM) supplemented with 25 mM HEPES, 1 g/l additional glucose, 1% MEM non-essential amino acids (100×), 0.2 mM 2-mercaptoethanol, 1 mM Na-pyruvate and 15% heat inactivated horse serum was added to each well of a 96-well microtiter plate. Serial drug dilutions of eleven 3-fold dilution steps covering a range from 100 to 0.002 µg/ml were prepared. Four thousand bloodstream form cells of T.b. rhodesiense STIB 900 in 50 µl were added to each well and the plate incubated at 37°C under a 5% CO2 atmosphere for 70 hours. Ten microlitres of resazurin solution (resazurin, 12.5 mg in 100 ml double-distilled water) was then added to each well and incubation continued for a further 2–4 hours. Plates were then read with a Spectramax Gemini XS microplate fluorometer (Molecular Devices, USA) using an excitation wavelength of 536 nm and an emission wavelength of 588 nm. Data was analysed using the microplate reader software Softmax Pro (Molecular Devices, USA). The drug melarsoprol was a positive control against T.b. rhodesiense.

[3] = test system: mammalian cell lines; settings: cited from earlier work
[4] = pentamidine 1 µM, diminazene 40 µM

SMILES	IC50 ([1]; read-out: Restest IC50 HEK) [nM]	IC50 [2]	IC50 ([2]; Trypanosoma brucei, L6, 70 h) [nM]	Selectivity Index T.R [2]	further results
CC(C)(C)C(=O)NCCc1csc(-c2cccc(F)c2)n1 [Compound 1]	41700	1470 ± 390 nM	1500	42 and 42.3	
O=C(NCCc1n[nH]c(-c2ccc(F)cc2)n1)c1cccc(F)c1 [Compound 2]	41700	6770 ± 545 nM	6800		
CCOc1ccc(OCc2ccc(C(=O)N3CCCC(C)C3)cc2)cc1 (stereo not drawn) [Compound 3]	41700	854 ± 332 nM	850	60 and 58.5	
Cc1cc(O)nc(-n2nc(C)cc2NC(=O)C2CCCC2)n1 [Compound 4]		4850 ± 2080 nM	4800	0.19 and 0.186	
CCS(=O)(=O)N1CCCc2ccc(NS(=O)(=O)c3ccccc3F)cc21 [Compound 5]		14000 nM and 14400 nM	< 10000		
CCC(C)NC(=O)c1nc(-c2ccccc2)cnc1N (stereo not drawn) [Compound 6]		967 ± 450 nM	970	18 and 18.4	
O=C(Nc1ccc(Cl)c(-c2nc3ncccc3o2)c1)c1ccco1 [Compound 7]	> 41700	586 ± 73 nM	590		
CCc1ccccc1N=C(NCCN1CCOCC1)NC(=O)c1ccccc1 [Compound 8]		875 ± 65 nM	880	150	
N=C(N)c1ccc(OCCCCCOc2ccc(C(=N)N)cc2)cc1 [Pentamidine, pentamidine, reference compound]					activity in the HEK293 assay at the doses screened, rescreening [1, 4]: neither pentamidine nor diminazene displayed activity; activity in the HEK293 assay at the doses screened, retest campaign [1, 4]: Neither pentamidine nor diminazene displayed activity; activity reported for some mammalian cell lines [3]: low µM activity
COc1ccc(C[C@H](N)C(=O)N[C@H]2[C@@H](O)[C@H](n3cnc4c(N(C)C)ncnc43)O[C@@H]2CO)cc1 [Puromycin, puromycin, reference compound]					IC50 ([1]; reference compound, read-out: IC50 against HEK293, retest screening campaign): 1120 ± 155 nM; IC50 ([1]; reference compound, read-out: IC50 in HEK293 assay, rescreening of resynthesized compounds): 518 ± 28.1 nM

Reference: publication PMC3510080, “Identification of Compounds with Anti-Proliferative Activity against Trypanosoma brucei brucei Strain 427 by a Whole Cell Viability Based HTS Campaign” (PLoS Neglected Tropical Diseases, 2012)
